From US6858591B2, “Antibiotic AA 896 analogs” (Wyeth Holdings Corporation, priority 2001, dated 2005)
≈ marks a conversion by molar mass, not a printed value. Like-named read-outs stand apart in the source and are kept apart here.

How the values were obtained:
Assay in all cases: In vitro MIC, broth dilution
Assay type in all cases: cell-based
[1] = system: E. coli GC 4559; conditions: Escherichia coli, GC4559
[2] = system: E. coli GC 4560; conditions: Escherichia coli, GC4560
[3] = system: E. coli GC 3226; conditions: Escherichia coli, GC3226
[4] = system: S. marcescens GC 4077; conditions: Serratia marcescens, GC4077
[5] = system: C. albicans GC 3066; conditions: Candida albicans, GC3066
[6] = system: M. morganii GC 4531; conditions: Morganella morganii, GC4531
[7] = system: K. pneumoniae GC 4534; conditions: Klebsiella pneumoniae, GC4534
[8] = system: E. cloacae GC 3783; conditions: Enterobacter cloacae, GC3783
[9] = system: P. aeruginosa GC 4532; conditions: Pseudomonas aeruginosa, GC4532
[10] = system: CNS GC 4537
Procedure, shortened: (§1)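 Serial antibiotic dilutions (64-0.06 μg/ml) in Mueller-Hinton II were challenged with 5×10^5 CFU/ml bacteria. After an 18 hour ambient-air incubation at 35° C, the lowest concentration inhibiting growth was recorded as MIC, following NCCLS recommendations.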

[11] = system: CNS GC 4538
Procedure, shortened: as §1

[12] = system: CNS GC 4547
Procedure, shortened: as §1

[13] = system: E. faecalis GC 2242; conditions: Enterococcus faecalis, GC2242
Procedure, shortened: as §1

[14] = system: E. faecalis GC 4555; conditions: Enterococcus faecalis, GC4555
Procedure, shortened: as §1

[15] = system: E. faecalis GC 842; conditions: Enterococcus faecalis, GC842
Procedure, shortened: as §1

[16] = system: S. aureus GC 1131; conditions: Staphylococcus aureus, GC1131
Procedure, shortened: as §1

[17] = system: S. aureus GC 2216; conditions: Staphylococcus aureus, GC2216
Procedure, shortened: as §1

[18] = system: S. aureus GC 4536; conditions: Staphylococcus aureus, GC4536
Procedure, shortened: as §1

[19] = system: E. coli GC 2203; conditions: Escherichia coli, GC2203
[20] = system: P. aeruginosa GC 2214; conditions: Pseudomonas aeruginosa, GC2214
[21] = S. marcescens GC 4077, read-out: MIC
[22] = C. albicans GC 3066, read-out: MIC
[23] = M. morganii GC 4531, read-out: MIC
[24] = K. pneumoniae GC 4534, read-out: MIC
[25] = E. cloacae GC 3783, read-out: MIC
[26] = P. aeruginosa GC 4532, read-out: MIC
[27] = E. faecalis GC 2242, read-out: MIC
[28] = E. faecalis GC 4555, read-out: MIC
[29] = E. faecalis GC 842, read-out: MIC
[30] = S. aureus GC 1131, read-out: MIC
[31] = S. aureus GC 2216, read-out: MIC
[32] = S. aureus GC 4536, read-out: MIC
[33] = P. aeruginosa GC 2214, read-out: MIC

Compound	MIC ([1]; E. coli GC 4559, read-out: MIC) [µg/mL]	MIC ([2]; E. coli GC 4560, read-out: MIC) [µg/mL]	MIC ([3]; E. coli GC 3226, read-out: MIC) [µg/mL]	MIC [4, 21] [µg/mL]	MIC [5, 22] [µg/mL]	MIC [6, 23] [µg/mL]	MIC [7, 24] [µg/mL]	MIC [8, 25] [µg/mL]	MIC [9, 26] [µg/mL]	MIC ([10]; CNS GC 4537, read-out: MIC) [µg/mL]	MIC ([11]; CNS GC 4538, read-out: MIC) [µg/mL]	MIC ([12]; CNS GC 4547, read-out: MIC) [µg/mL]	MIC [13, 27] [µg/mL]	MIC [14, 28] [µg/mL]	MIC [15, 29] [µg/mL]	MIC [16, 30] [µg/mL]	MIC [17, 31] [µg/mL]	MIC [18, 32] [µg/mL]	MIC ([19]; E. coli GC 2203, read-out: MIC) [µg/mL]	MIC [20, 33] [µg/mL]	further results
COc1ccc(Cn2c(=O)ccn([C@@H]3OC([C@H](O)[C@H](NCCCNC(=O)[C@H](CCC(=O)OC(C)(C)C)NC(=O)OCc4ccccc4)C(=O)OC(C)(C)C)[C@@H](O[Si](C)(C)C(C)(C)C)[C@H]3O[Si](C)(C)C(C)(C)C)c2=O)cc1 (stereo partly drawn) [Example 20, tert-Butyl (5S,12S)-12-[(R)-[(3R,4R,5R)-3,4-bis{[tert-butyl(dimethyl)silyl]oxy}-5-(3-(4-methoxybenzyl)-2,4-dioxo-3,4-dihydro-1(2H)-pyrimidinyl)tetrahydro-2-furanyl](hydroxy)methyl]-5-[3-(tert-butoxy)-3-oxopropyl]-3,6-dioxo-1-phenyl-2-oxa-4,7,11-triazatridecan-13-oate]																					MIC [1]: > 128 µg/mL; MIC [2]: > 128 µg/mL; MIC [3]: > 128 µg/mL; MIC [4]: > 128 µg/mL; MIC [5]: 128 µg/mL (≈ 117 µM); MIC [6]: > 128 µg/mL; MIC [7]: > 128 µg/mL; MIC [8]: > 128 µg/mL; MIC [9]: 128 µg/mL (≈ 117 µM); MIC [10]: > 128 µg/mL; MIC [11]: > 128 µg/mL; MIC [12]: > 128 µg/mL; MIC [13]: > 128 µg/mL; MIC [14]: > 128 µg/mL; MIC [15]: > 128 µg/mL; MIC [16]: > 128 µg/mL; MIC [17]: > 128 µg/mL; MIC [18]: > 128 µg/mL; MIC [19]: > 128 µg/mL; MIC [20]: 128 µg/mL (≈ 117 µM)
COc1ccc(Cn2c(=O)ccn([C@@H]3OC([C@H](O)[C@H](NCCCNC(=O)[C@H](N)CC(C)C)C(=O)OC(C)(C)C)[C@@H](O[Si](C)(C)C(C)(C)C)[C@H]3O[Si](C)(C)C(C)(C)C)c2=O)cc1 (some centres unmarked) [Example 57]	> 128	128 (≈ 143 µM)	> 128	128 (≈ 143 µM)	128 (≈ 143 µM)	128 (≈ 143 µM)	> 128	128 (≈ 143 µM)	128 (≈ 143 µM)	4 (≈ 4.48 µM)	4 (≈ 4.48 µM)	64 (≈ 71.7 µM)	4 (≈ 4.48 µM)	4 (≈ 4.48 µM)	8 (≈ 8.97 µM)	64 (≈ 71.7 µM)	32 (≈ 35.9 µM)	8 (≈ 8.97 µM)	> 128	128 (≈ 143 µM)	
CCOC(=O)C(NCCCNC(=O)[C@@H](N)CC(C)C)[C@@H](OC(C)=O)[C@H]1O[C@@H](n2ccc(=O)[nH]c2=O)[C@H](OC(C)=O)[C@@H]1OC(C)=O (stereo partly drawn) [Example 40, Ethyl (3R)-3-(acetyloxy)-2-[(3-{[(2S)-2-amino-4-methylpentanoyl]amino}propyl)amino]-3-[(2R,3R,4R,5R)-3,4-bis(acetyloxy)-5-(2,4-dioxo-3,4-dihydro-1(2H)-pyrimidinyl)tetrahydro-2-furanyl]propanoate]	> 128	> 128	> 128	> 128	> 128	> 128	> 128	> 128	128 (≈ 199 µM)	> 128	> 128	> 128	128 (≈ 199 µM)	> 128	> 128	> 128	> 128	> 128	> 128	128 (≈ 199 µM)	
CCOC(=O)C(NCCCNC(=O)[C@@H](N)[C@H](C)O)[C@@H](O)[C@H]1O[C@H](n2ccc(=O)[nH]c2=O)[C@H](OC(C)=O)[C@@H]1OC(C)=O (stereo partly drawn) [Example 32, Ethyl (3R)-2-[(3-{[(2S,3S)-2-amino-3-hydroxybutanoyl]amino}propyl)amino]-3-[(2R,3R,4R,5S)-3,4-bis(acetyloxy)-5-(2,4-dioxo-3,4-dihydro-1(2H)-pyrimidinyl)tetrahydro-2-furanyl]-3-hydroxypropanoate]	> 128	> 128	> 128	> 128	> 128	> 128	> 128	> 128	> 128	> 128	> 128	> 128	> 128	> 128	> 128	> 128	> 128	> 128	> 128	> 128	
CC(C)C[C@H](NC(=O)OCc1ccccc1)C(=O)NCCCN[C@H](C(=O)OC(C)(C)C)[C@@H](O)C1O[C@@H](n2ccc(=O)[nH]c2=O)[C@H](O[Si](C)(C)C(C)(C)C)[C@@H]1O[Si](C)(C)C(C)(C)C (stereo partly drawn) [Example 6, tert-Butyl (5S,12S)-12-[(R)-[(3R,4R,5R)-3,4-bis{[tert-butyl(dimethyl)silyl]oxy}-5-(2,4-dioxo-3,4-dihydro-1(2H)-pyrimidinyl)tetrahydro-2-furanyl](hydroxy)methyl]-5-isobutyl-3,6-dioxo-1-phenyl-2-oxa-4,7,11-triazatridecan-13-oate]	> 128	128 (≈ 141 µM)	> 128	> 128	> 128	128 (≈ 141 µM)	> 128	> 128	128 (≈ 141 µM)	> 128	> 128	> 128	64 (≈ 70.6 µM)	> 128	> 128	> 128	> 128	> 128	> 128	128 (≈ 141 µM)	
COc1ccc(Cn2c(=O)ccn([C@@H]3OC([C@H](O)[C@H](NCCCNC(=O)CCCCCCCCCCNC(=O)OCC4c5ccccc5-c5ccccc54)C(=O)OC(C)(C)C)[C@@H](O[Si](C)(C)C(C)(C)C)[C@H]3O[Si](C)(C)C(C)(C)C)c2=O)cc1 (stereo partly drawn) [Example 24, tert-Butyl (21S)-21-[(R)-[(3R,4R,5R)-3,4-bis{[tert-butyl(dimethyl)silyl]oxy}-5-(3-(4-methoxybenzyl)-2,4-dioxo-3,4-dihydro-1(2H)-pyrimidinyl)tetrahydro-2-furanyl](hydroxy)methyl]-1-(9H-fluoren-9-yl)-3,15-dioxo-2-oxa-4,16,20-triazadocosan-22-oate]																					MIC [1]: > 128 µg/mL; MIC [2]: 128 µg/mL (≈ 108 µM); MIC [3]: > 128 µg/mL; MIC [4]: 128 µg/mL (≈ 108 µM); MIC [5]: 128 µg/mL (≈ 108 µM); MIC [6]: 128 µg/mL (≈ 108 µM); MIC [7]: > 128 µg/mL; MIC [8]: > 128 µg/mL; MIC [9]: 128 µg/mL (≈ 108 µM); MIC [10]: > 128 µg/mL; MIC [11]: > 128 µg/mL; MIC [12]: > 128 µg/mL; MIC [13]: 128 µg/mL (≈ 108 µM); MIC [14]: > 128 µg/mL; MIC [15]: > 128 µg/mL; MIC [16]: > 128 µg/mL; MIC [17]: > 128 µg/mL; MIC [18]: > 128 µg/mL; MIC [19]: > 128 µg/mL; MIC [20]: 128 µg/mL (≈ 108 µM)
COc1ccc(Cn2c(=O)ccn([C@@H]3OC([C@H](O)[C@H](NCCCNC(=O)[C@@H](NC(=O)[C@H](CCCNC(=N)N[N+](=O)O)NC(=O)N[C@H](C(=O)OCc4ccccc4)C(C)C)[C@@H](O)C(C)C)C(=O)OC(C)(C)C)[C@@H](O[Si](C)(C)C(C)(C)C)[C@H]3O[Si](C)(C)C(C)(C)C)c2=O)cc1 (stereo partly drawn) [Example 26, 1-Benzyl 17-(tert-butyl)(2S,6S,9S,16S)-16-[(R)-[(3R,4R,5R)-3,4-bis{[tert-butyl(dimethyl)silyl]oxy}-5-(3-(4-methoxybenzyl)-2,4-dioxo-3,4-dihydro-1(2H)-pyrimidinyl)tetrahydro-2-furanyl](hydroxy)methyl]-6-(3-{[(2,2-dioxido-2lambda˜1˜-diazanyl)(imino)methyl]amino}propyl)-9-[(1S)-1-hydroxy-2-methylpropyl]-2-isopropyl-4,7,10-trioxo-3,5,8,11,15-pentaazaheptadecane-1,17-dioate]																					MIC [1]: > 128 µg/mL; MIC [2]: > 128 µg/mL; MIC [3]: > 128 µg/mL; MIC [4]: > 128 µg/mL; MIC [5]: > 128 µg/mL; MIC [6]: > 128 µg/mL; MIC [7]: > 128 µg/mL; MIC [8]: > 128 µg/mL; MIC [9]: > 128 µg/mL; MIC [10]: > 128 µg/mL; MIC [11]: > 128 µg/mL; MIC [12]: > 128 µg/mL; MIC [13]: 128 µg/mL; MIC [14]: > 128 µg/mL; MIC [15]: > 128 µg/mL; MIC [16]: > 128 µg/mL; MIC [17]: > 128 µg/mL; MIC [18]: > 128 µg/mL; MIC [19]: > 128 µg/mL; MIC [20]: 128 µg/mL
